Laboratory results as given in PubChem BioAssay (NCI).
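Each compound was tested at five concentrations against cells in 96-well plates for 48 hours. At the GI50, growth is halved. At the TGI there is no net growth.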

Assays:
Test in all cases: NCI tumour cell line growth inhibition, 48 h
[1] = test system: A498 renal
[2] = test system: UACC-62 melanoma
[3] = test system: RXF 393 renal
[4] = test system: BT-549 breast
[5] = test system: A549 NSCLC
[6] = test system: HL-60(TB) leukemia
[7] = test system: SK-OV-3 ovarian
[8] = test system: SNB-75 CNS
[9] = test system: NCI/ADR-RES ovarian
[10] = test system: PC-3 prostate
[11] = test system: TK-10 renal
[12] = test system: M14 melanoma
[13] = test system: SF-539 CNS
[14] = test system: SK-MEL-28 melanoma
[15] = test system: OVCAR-4 ovarian
[16] = test system: HS 578T breast
[17] = test system: OVCAR-5 ovarian
[18] = test system: K-562 leukemia
[19] = test system: ACHN renal
[20] = test system: SR leukemia
[21] = test system: SF-295 CNS
[22] = test system: MALME-3M melanoma
[23] = test system: NCI-H226 lung
[24] = test system: CCRF-CEM leukemia
[25] = test system: HCC-2998 colon
[26] = test system: SK-MEL-2 melanoma
[27] = test system: HT29 colon
[28] = test system: DU-145 prostate
[29] = test system: RPMI-8226 leukemia
[30] = test system: IGROV1 ovarian
[31] = test system: HOP-62 NSCLC
[32] = test system: HCT-15 colon
[33] = test system: SNB-19 CNS
[34] = test system: HCT-116 colon
[35] = test system: EKVX NSCLC
[36] = test system: 786-0 renal
[37] = test system: KM12 colon
[38] = test system: NCI-H522 lung
[39] = test system: U251 CNS
[40] = test system: UO-31 renal
[41] = test system: MCF7 breast
[42] = test system: OVCAR-3 ovarian
[43] = test system: MDA-MB-435
[44] = test system: SN12C renal
[45] = test system: LOX IMVI melanoma
[46] = test system: COLO 205 colon
[47] = test system: OVCAR-8 ovarian
[48] = test system: UACC-257 melanoma
[49] = test system: NCI-H460 lung
[50] = test system: HOP-92 NSCLC
[51] = test system: MDA-MB-231 breast
[52] = test system: CAKI-1 renal
[53] = test system: SW-620 colon
[54] = test system: MOLT-4 leukemia
[55] = test system: T-47D breast
[56] = test system: SK-MEL-5 melanoma
[57] = test system: SF-268 CNS

In the case of `NC(N)=Nc1ccc(Oc2cccc(Nc3cccc(C(F)(F)F)c3)c2)cn1`, the GI50 [1] is reported as 1510 nM, the TGI [1] is reported as 3020 nM and the GI50 [2] is reported as 1790 nM. For the same compound, the TGI [2] was 3400 nM, the GI50 [3] was 1760 nM and the TGI [3] was 3390 nM. The GI50 [4] was 1760 nM, the TGI [4] was 3300 nM and the GI50 [5] was 1880 nM. For the same compound, the TGI [5] was 4420 nM, the GI50 [6] was 2040 nM and the TGI [6] was 4360 nM. It also gave a GI50 [7] of 2080 nM, a TGI [7] of 4270 nM and a GI50 [8] of 1370 nM. For the same compound, the TGI [8] was 2740 nM, the GI50 [9] was 4850 nM and the TGI [9] was 37600 nM. The GI50 [10] was 1470 nM, the TGI [10] was 2880 nM and the GI50 [11] was 1850 nM. It also gave a TGI [11] of 3630 nM, a GI50 [12] of 1760 nM and a TGI [12] of 3330 nM. For the same compound, the GI50 [13] was 1720 nM, the TGI [13] was 3220 nM and the GI50 [14] was 1700 nM. For the same compound, the TGI [14] was 3160 nM.

Compound `CC[C@H](CO)Nc1ccc2ncc(C#Cc3cncc(C(=O)Nc4ccc(CN5CCN(C)CC5)c(C(F)(F)F)c4)c3)n2n1` has a GI50 [15] of 507 nM, a TGI [15] of 2540 nM and a GI50 [16] of 200 nM. It also gave a TGI [16] of 1070 nM, a GI50 [1] of 266 nM and a TGI [1] of 721 nM. The GI50 [17] was 553 nM, the TGI [17] was 2070 nM and the GI50 [18] was 15.8 nM. For the same compound, the TGI [18] was 636 nM, the GI50 [2] was 767 nM and the TGI [2] was 1570 nM. The GI50 [19] was 442 nM, the TGI [19] was 1130 nM and the GI50 [20] was 196 nM. For the same compound, the TGI [20] was 888 nM, the GI50 [3] was 273 nM and the TGI [3] was 910 nM. For the same compound, the GI50 [4] was 580 nM, the TGI [4] was 1670 nM and the GI50 [21] was 555 nM. It also gave a TGI [21] of 1600 nM, a GI50 [5] of 356 nM and a TGI [5] of 1450 nM. For the same compound, the GI50 [22] was 660 nM, the TGI [22] was 1430 nM and the GI50 [23] was 205 nM. The TGI [23] was 1170 nM, the GI50 [24] was 188 nM and the TGI [24] was 1370 nM. For the same compound, the GI50 [25] was 703 nM, the TGI [25] was 1690 nM and the GI50 [26] was 470 nM. It also gave a TGI [26] of 1210 nM, a GI50 [27] of 221 nM and a TGI [27] of 933 nM. The GI50 [28] was 579 nM, the TGI [28] was 1430 nM and the GI50 [29] was 577 nM. The TGI [29] was 1800 nM, the GI50 [30] was 152 nM and the TGI [30] was 835 nM. It also gave a GI50 [31] of 288 nM, a TGI [31] of 1090 nM and a GI50 [32] of 813 nM. The TGI [32] was 2070 nM, the GI50 [6] was 218 nM and the TGI [6] was 648 nM. For the same compound, the GI50 [33] was 880 nM, the TGI [33] was 3280 nM and the GI50 [7] was 1190 nM. For the same compound, the TGI [7] was 2780 nM, the GI50 [34] was 170 nM and the TGI [34] was 662 nM. The GI50 [35] was 391 nM, the TGI [35] was 1620 nM and the GI50 [36] was 362 nM. It also gave a TGI [36] of 1080 nM, a GI50 [37] of 16.5 nM and a TGI [37] of 1180 nM. It also gave a GI50 [8] of 48.4 nM, a TGI [8] of 314 nM and a GI50 [9] of 5850 nM. The TGI [9] was 13400 nM, the GI50 [38] was 238 nM and the TGI [38] was 997 nM. The GI50 [39] was 580 nM, the TGI [39] was 1310 nM and the GI50 [40] was 940 nM. For the same compound, the TGI [40] was 2140 nM, the GI50 [41] was 163 nM and the TGI [41] was 807 nM. It also gave a GI50 [10] of 670 nM, a TGI [10] of 2800 nM and a GI50 [42] of 576 nM. The TGI [42] was 1630 nM, the GI50 [11] was 1000 nM and the TGI [11] was 2450 nM. The GI50 [43] was 451 nM, the TGI [43] was 1090 nM and the GI50 [12] was 322 nM. The TGI [12] was 1010 nM, the GI50 [44] was 160 nM and the TGI [44] was 1030 nM. The GI50 [45] was 206 nM, the TGI [45] was 817 nM and the GI50 [46] was 126 nM. It also gave a TGI [46] of 319 nM, a GI50 [47] of 589 nM and a TGI [47] of 1320 nM. It also gave a GI50 [48] of 760 nM, a TGI [48] of 1530 nM and a GI50 [49] of 423 nM. It also gave a TGI [49] of 1140 nM, a GI50 [50] of 70 nM and a TGI [50] of 307 nM. The GI50 [51] was 142 nM, the TGI [51] was 903 nM and the GI50 [13] was 45.4 nM. The TGI [13] was 266 nM, the GI50 [52] was 349 nM and the TGI [52] was 1110 nM. For the same compound, the GI50 [53] was 186 nM, the TGI [53] was 803 nM and the GI50 [54] was 239 nM. For the same compound, the TGI [54] was 1940 nM, the GI50 [55] was 900 nM and the TGI [55] was 2920 nM. The GI50 [14] was 681 nM, the TGI [14] was 1490 nM and the GI50 [56] was 766 nM. The TGI [56] was 1460 nM, the GI50 [57] was 246 nM and the TGI [57] was 1220 nM.
